Data: patent US11076595B2, “1-(n,n-disubstituted carbamoyl) 4-(substituted sulfonyl)triazolin-5-one derivative, 4-(n,n-disubstituted carbamoyl) 1-(substituted sulfonyl)triazolin-5-one derivative, and herbicide containing said derivative as active ingredient” (HOKKO CHEMICAL INDUSTRY CO., LTD., priority 2017, dated 2021)

Experiments:
Type in all cases: in vivo
[1] = test system: Monochoria vaginalis; assay: Test Example 12: herbicidal effect test by treatment during growing period in paddy field; conditions: 120 g/10a; treatment seven days after sowing in flooded paddy pot; assessed 14 days after treatment
Method in brief: (§1)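 Growing-period treatment in flooded paddy pots: the diluted emulsifiable concentrate was dripped in at 120 g a.i. per 10 are seven days after seeding. Inhibition is expressed as percent reduction in dry weight versus untreated pots, measured 14 days later in duplicate.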

[2] = test system: Lindernia pyxidaria; assay: as above; conditions: 120 g/10a; treatment seven days after sowing in flooded paddy pot; assessed 14 days after treatment
Method in brief: as §1

[3] = test system: Scirpus juncoides; assay: as above; conditions: 120 g/10a; treatment seven days after sowing in flooded paddy pot; assessed 14 days after treatment
Method in brief: as §1

[4] = test system: Echinochloa crus-galli; assay: as above; conditions: 120 g/10a; treatment seven days after sowing in flooded paddy pot; assessed 14 days after treatment
Method in brief: as §1

[5] = test system: Amaranthus viridis; assay: Test Example 14: herbicidal effect test by foliage treatment in upland field; conditions: 7 days after sowing, 120 g/10a, 14 days after treatment
Method in brief: (§2)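 Emulsifiable concentrate, water-diluted, is applied post-emergence to 7-day-old sowings in field soil at 120 g active ingredient per 10 are. The weed suppression rate derives from average dry weights versus untreated controls, measured 14 days later.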

[6] = test system: Echinochloa crus-galli; assay: as above; conditions: 7 days after sowing, 120 g/10a, 14 days after treatment
Method in brief: as §2

[7] = test system: Amaranthus viridis; assay: Test Example 13: herbicidal effect test by soil treatment in upland field; conditions: 120 g/10a, 14 days after treatment
Method in brief: (§3)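 Pre-emergence soil treatment: alluvial soil pots (36 cm^2) sown with 20 seeds per weed species, sprayed one day later with water-diluted emulsifiable concentrate at 100 liter per 10 are, equal to 120 g active ingredient per 10 are. Two replicates; weed suppression (%) from dry weight versus untreated plots at 14 days.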

[8] = test system: Chenopodium album; assay: as above; conditions: 120 g/10a, 14 days after treatment
Method in brief: as §3

[9] = test system: crabgrass; assay: as above; conditions: 120 g/10a, 14 days after treatment
Method in brief: as §3

[10] = test system: Echinochloa crus-galli; assay: as above; conditions: 120 g/10a, 14 days after treatment
Method in brief: as §3

[11] = test system: Chenopodium album; assay: Test Example 14: herbicidal effect test by foliage treatment in upland field; conditions: 7 days after sowing, 120 g/10a, 14 days after treatment
Method in brief: as §2

[12] = test system: crabgrass; assay: as above; conditions: 7 days after sowing, 120 g/10a, 14 days after treatment
Method in brief: as §2

[13] = test system: Monochoria vaginalis; assay: Test Example 11: herbicidal effect test by soil treatment in paddy field; conditions: 120 g/10a active ingredient, 14 days after treatment
Method in brief: (§4)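 Seeds were sown 0-1 cm deep in puddled, fertilised paddy soil in Wagner pots and kept under about 3 cm of flooding in a greenhouse. Diluted emulsifiable concentrate was added dropwise right after sowing at 120 g a.i. per 10 are. Suppression (%) came from dry weight versus untreated pots after 14 days, two replicates.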

[14] = test system: Lindernia pyxidaria; assay: as above; conditions: 120 g/10a active ingredient, 14 days after treatment
Method in brief: as §4

[15] = test system: Scirpus juncoides; assay: as above; conditions: 120 g/10a active ingredient, 14 days after treatment
Method in brief: as §4

[16] = test system: Echinochloa crus-galli; assay: as above; conditions: 120 g/10a active ingredient, 14 days after treatment
Method in brief: as §4

Row | Compound | Weed suppression rate (%) Monochoria vaginalis [1] [%] | Weed suppression rate (%) Lindemia pyxidaria [2] [%] | Weed suppression rate (%) Scirpus juncoides [3] [%] | Weed suppression rate (%) Echinochloa crus-galli [4] [%] | herbicidal effect, Amaranthus viridis [5] [%] | herbicidal effect, Echinochloa crus-galli [6] [%] | herbicidal effect, Amaranthus viridis [7] [%] | herbicidal effect, Chenopodium album [8] [%] | herbicidal effect, Crabgrass [9] [%] | herbicidal effect, Echinochloa crus-galli [10] [%] | herbicidal effect, Chenopodium album [11] [%] | herbicidal effect, Crabgrass [12] [%] | Weed suppression rate (%) Monochoria vaginalis [13] [%] | Weed suppression rate (%) Lindemia pyxidaria [14] [%] | Weed suppression rate (%) Scirpus juncoides [15] [%] | Weed suppression rate (%) Echinochloa crus-galli [16] [%]
1 | CC(C)N(C(=O)n1cnn(S(=O)(=O)C2CC2)c1=O)c1ccccc1F [Compound 11-160] | 70 | 90 | 90 | 100 | 90 | 80 | 90 | 80 | 90 | 80 | 80 | 90 | 70 | 90 | 90 | 100
2 | CC(C)N(C(=O)n1cnn(S(=O)(=O)C2CC2)c1=O)c1ccc(F)cc1 [Compound 11-162] | 80 | 80 | 90 | 90 | 90 | 80 | 90 | 80 | 90 | 80 | 80 | 90 | 90 | 90 | 90 | 100
3 | CC(C)N(C(=O)n1cnn(S(=O)(=O)C2CC2)c1=O)c1cccc(F)c1F [Compound 11-189] | 100 | 80 | 100 | 100 | 60 | 100 | 100 | 90 | 100 | 100 | 80 | 100 | 90 | 100 | 90 | 100
4 | CC(C)N(C(=O)n1cnn(S(=O)(=O)C2CC2)c1=O)c1c(F)cccc1F [Compound 11-191] | 90 | 90 | 90 | 100 | 60 | 100 | 70 | 70 | 100 | 100 | 60 | 100 | 90 | 100 | 100 | 100
5 | CC(C)N(C(=O)n1cnn(S(=O)(=O)C2CC2)c1=O)c1ccc(F)c(F)c1F [Compound 11-194] | 100 | 100 | 100 | 100 | 90 | 100 | 100 | 70 | 90 | 90 | 80 | 100 | 100 | 100 | 100 | 100
6 | CC(C)N(C(=O)n1cnn(S(=O)(=O)C2CC2)c1=O)c1c(F)cc(F)cc1F [Compound 11-195] | 90 | 70 | 90 | 100 | 30 | 100 | 90 | 90 | 100 | 100 | 70 | 100 | 80 | 100 | 100 | 100
7 | Cc1ccc(N(C(=O)n2cnn(S(=O)(=O)C3CC3)c2=O)C(C)C)c(F)c1 [Compound 11-212] | 80 | 80 | 90 | 90 | 90 | 80 | 60 | 60 | 100 | 100 | 80 | 90 | 80 | 90 | 90 | 100
8 | CC(C)N(C(=O)n1cnn(S(=O)(=O)C2CC2)c1=O)c1ccc(Cl)cn1 [Compound 11-233] | 90 | 90 | 90 | 100 | 40 | 90 | 80 | 50 | 90 | 80 | 50 | 90 | 90 | 100 | 90 | 100
